Source: patent publication EP0603240B1, “SAFENING HERBICIDAL PYRAZOLYLSULFONYLUREAS” (priority 1991, dated 1993)

What was measured:
corn [1] = assay: Example 10, Procedure II: Herbicide No. 1 + propachlor (No. 5) with antidotes; assay type: in vivo
Procedure: (§1) Containers were filled and compacted with a fumigated silt loam top soil to a depth of about 1.3 cm from the top of the container. A first container was designated as an untreated control, a second container was designated as a herbicide control, and a third container was designated as a herbicide + antidote test container. Each of the containers was seeded with a crop species. A measured amount of herbicide dispersed or dissolved in acetone was applied to a measured quantity of soil. To this same quantity of soil treated with herbicide, there was added a measured amount of antidote dispersed or dissolved in acetone. The quantity of soil treated with the herbicide and antidote was thoroughly mixed to incorporate the herbicide and antidote in the soil uniformly. The seed bed in the third container of soil was covered with the soil treated with the herbicide and antidote and the container was leveled. For each test series, the seed beds of the first and second containers were likewise covered by soil layers. the cover layer of the first container was not treated with herbicide or antidote.
(§2) The containers were then placed on a bench in a greenhouse and sub-irrigated as required for the duration of the test. […] Plant response is measured in terms of percent injury. Antidote efficacy is indicated as the difference in plant injury by the herbicide(s) without the antidote and with the antidote.
(§3) This procedure is the same as Procedure I, but modified in the manner that after incorporation of the chemicals (herbicide and antidote) the containers with the covered seedbed were treated with an initial overhead irrigation equivalent to 0.6 cm rainfall, then subsequently sub-irrigated as required on greenhouse benches.
In this test, the safening effect of various antidotes on the herbicidal combination of Herbicide No. 1 and another α-chloroacetanilide co-herbicide, propachlor, (Herbicide No. 5) was investigated. Propachlor is the active ingredient in the commercial herbicide RAMROD®. Procedure II was also used in this test as in the preceding example.

corn [2] = assay: Example 11, Procedure II: Herbicide No. 1 + metazachlor (No. 14) with antidotes; assay type: in vivo
Procedure: as §1, §2, §3
In this example, yet another α-chloroacetanilide co-herbicide, metazachlor (Herbicide No. 14) was combined with Herbicide No. 1 for investigation of the effect of various safeners on that composition. Metazachlor is the active ingredient in the commercial herbicide BUTISAN® S, used here as a 500 g/L formulation.

corn [3] = assay: Example 15, Procedure II: Herbicide No. 1 + butylate (No. 10) with antidotes; assay type: in vivo
Procedure: as §1, §2, §3
This example describes experiments designed to investigate the antidotal efficacy of a plurality of antidotes against the herbicidal action of a combination of Herbicide No. 1 and butylate in corn and the prevalent weeds barnyardgrass and velvetleaf. The antidotes used in these experiments were Nos. 1-10, 12, 13 and 15.
The test procedure used in these experiments was that of Procedure II described above. The antidotes were applied to a soil cover layer by pipet after spraying the herbicides onto the soil, followed by incorporation and overhead irrigation.

[4] = tested on: barnyardgrass (Echinochloa crusgalli); assay: Example 9, Procedure II: Herbicide No. 1 + pretilachlor (No. 13) with antidotes; assay type: in vivo
Procedure: as §1, §2, §3
(§4) In the series of greenhouse tests described below, for routine screening purposes the herbicide/antidote compositions were tested in crop/weed combinations involving corn as the crop and either or both of the weeds barnyardgrass (Echinochloa crusgalli), a monocotyledonous weed, and velvetleaf (Abutilon theophrasti), a dicotyledonous weed. In the tables below, these weeds are indicated by the symbols "BYG" and "VL", respectively.
(§5) In this example the safening effect on a composition comprising Herbicide No. 1 and another leading rice herbicide, i.e., Herbicide No. 13, was investigated using the same antidotes and test procedure described in the preceding example. Herbicide No. 13 is pretilachlor, active ingredient used in the commercial rice herbicides RIFIT®, SOFIT® and SOFIT® SUPER.

[5] = tested on: velvetleaf (Abutilon theophrasti); assay: as above; assay type: in vivo
Procedure: as §1, §2, §3, §4, §5

corn [6] = assay: Example 4, Procedure I: Antidote Nos. 15 and 16 against Herbicide No. 1; assay type: in vivo
Procedure: as §1, §2
This example describes tests with Antidote Nos. 15 and 16 to safen Herbicide No. 1 according to Procedure I using corn and the weeds barnyardgrass and velvetleaf as the test plants.

corn [7] = assay: Example 2, Procedure II: dichloroacetamide antidotes against Herbicide No. 1; assay type: in vivo
Procedure: as §1, §2, §3
In this example, a plurality of dichloroacetamide antidotes were tested for their safening efficacy against Herbicide No. 1 in corn, using Procedure II. In this test the weed was velvetleaf; barnyardgrass was not present in this test.

corn [8] = assay: Example 5, Procedure I: Herbicide No. 1 + alachlor (No. 7) with Antidote Nos. 15 and 16; assay type: in vivo
In short: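 Greenhouse pot test in silt loam; herbicide No. 1 plus alachlor co-herbicide and antidote, each applied in acetone, mixed into cover soil over seeded beds, sub-irrigated. Percent injury scored; antidote efficacy as injury difference without vs with antidote.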

corn [9] = assay: Example 25, greenhouse preemergence test: Antidote Nos. 1 and 2 against Herbicide Nos. 1-3; assay type: in vivo, Corn (Pioneer 3424 variety); conditions: Zea mays, pre-emergence, Preemergence, no antidote
In short: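 Greenhouse preemergence application; herbicides as wettable powders, dichlormid as emulsifiable concentrate, naphthalic anhydride as conventional seed coating on corn before planting. Rates in g active ingredient/ha; naphthalic anhydride amount not quantified. Corn injury scored as percent growth inhibition.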

[10] = Herbicide No.1 0.14 kg/ha + Herbicide No.13 2.24 kg/ha, antidote rate 2.24 kg/ha
[11] = Herbicide No.1 0.14 kg/ha + Herbicide No.13 2.24 kg/ha, antidote rate 8.96 kg/ha
[12] = Herbicide No.1 0.56 kg/ha + Herbicide No.13 2.24 kg/ha, antidote rate 2.24 kg/ha
[13] = Herbicide No.1 0.56 kg/ha + Herbicide No.13 2.24 kg/ha, antidote rate 8.96 kg/ha
[14] = Herbicide No.1 0.56 kg/ha alone, no antidote
[15] = Herbicide No.1 1.12 kg/ha alone, no antidote

Structure (SMILES): CC1(C)OC(c2ccco2)CN1C(=O)C(Cl)Cl (centres unmarked) [compound 15]
- % Injury Corn (corn [1]; Herbicide No.1 0.14 kg/ha + Herbicide No.5 4.48 kg/ha, antidote rate 2.24 kg/ha): 0%
- % Injury Corn (corn [1]; Herbicide No.1 0.14 kg/ha + Herbicide No.5 4.48 kg/ha, antidote rate 8.96 kg/ha): 0%
- % Injury Corn (corn [1]; Herbicide No.1 0.56 kg/ha + Herbicide No.5 4.48 kg/ha, antidote rate 2.24 kg/ha): 10%
- % Injury Corn (corn [1]; Herbicide No.1 0.56 kg/ha + Herbicide No.5 4.48 kg/ha, antidote rate 8.96 kg/ha): 10%
- % Injury Corn (corn [2]; Herbicide No.1 0.56 kg/ha + Herbicide No.14 3.36 kg/ha, antidote rate 2.24 kg/ha): 65%
- % Injury Corn (corn [2]; Herbicide No.1 0.56 kg/ha + Herbicide No.14 3.36 kg/ha, antidote rate 8.96 kg/ha): 65%
- % Injury Corn (corn [2]; Herbicide No.1 1.12 kg/ha + Herbicide No.14 3.36 kg/ha, antidote rate 2.24 kg/ha): 25%
- % Injury Corn (corn [2]; Herbicide No.1 1.12 kg/ha + Herbicide No.14 3.36 kg/ha, antidote rate 8.96 kg/ha): 40%
- % Injury Corn (corn [3]; Herbicide No.1 0.56 kg/ha + Herbicide No.10 6.72 kg/ha, antidote rate 2.24 kg/ha): 20%
- % Injury Corn (corn [3]; Herbicide No.1 0.56 kg/ha + Herbicide No.10 6.72 kg/ha, antidote rate 8.96 kg/ha): 10%
- % Injury Corn (corn [3]; Herbicide No.1 1.12 kg/ha + Herbicide No.10 6.72 kg/ha, antidote rate 2.24 kg/ha): 15%
- % Injury Corn (corn [3]; Herbicide No.1 1.12 kg/ha + Herbicide No.10 6.72 kg/ha, antidote rate 8.96 kg/ha): 15%
- % Injury BYG [4, 10]: 100%
- % Injury BYG [4, 11]: 100%
- % Injury BYG [4, 12]: 99%
- % Injury BYG [4, 13]: 100%
- % Injury VL [5, 10]: 60%
- % Injury VL [5, 11]: 90%
- % Injury VL [5, 12]: 85%
- % Injury VL [5, 13]: 75%
- % Injury Corn (corn [6]; Herb. No. 1 6.72 kg/ha + antidote 0.56 kg/ha): 35%
- % Injury Corn (corn [6]; Herb. No. 1 6.72 kg/ha + antidote 2.24 kg/ha): 50%
- % Injury Corn (corn [7]; Herb. No. 1 0.14 kg/ha + antidote 0.56 kg/ha): 5%
- % Injury Corn (corn [8]; Herbicide No.1 4.48 + No.7 0.56 kg/ha + antidote 0.56 kg/ha): 23%
- % Injury Corn (corn [8]; Herbicide No.1 4.48 + No.7 0.56 kg/ha + antidote 2.24 kg/ha): 40%
- % Injury Corn (corn [8]; Herbicide No.1 4.48 + No.7 2.24 kg/ha + antidote 0.56 kg/ha): 30%
- % Injury Corn (corn [8]; Herbicide No.1 4.48 + No.7 2.24 kg/ha + antidote 2.24 kg/ha): 23%
- % Injury Corn (corn [8]; Herbicide No.1 6.72 + No.7 0.56 kg/ha + antidote 0.56 kg/ha): 25%
- % Injury Corn (corn [8]; Herbicide No.1 6.72 + No.7 0.56 kg/ha + antidote 2.24 kg/ha): 25%
- % Injury Corn (corn [8]; Herbicide No.1 6.72 + No.7 2.24 kg/ha + antidote 0.56 kg/ha): 45%
- % Injury Corn (corn [8]; Herbicide No.1 6.72 + No.7 2.24 kg/ha + antidote 2.24 kg/ha): 50%

Structure (SMILES): COC(=O)c1c(Cl)nn(C)c1S(=O)(=O)NC(=O)Nc1nc(OC)cc(OC)n1 [Herbicide No. 1]
- % Injury Corn (corn [1]; Herbicide No.1 0.14 kg/ha alone, no antidote): 20%
- % Injury Corn (corn [1]; [14]): 30%
- % Injury Corn (corn [2]; [14]): 65%
- % Injury Corn (corn [2]; [15]): 65%
- % Injury Corn (corn [3]; [14]): 20%
- % Injury Corn (corn [3]; [15]): 20%
- % Injury Corn (corn [6]; Herb. No. 1 4.48 kg/ha, no antidote, average of two replicates): 85%
- % Injury Corn (corn [6]; Herb. No. 1 6.72 kg/ha, no antidote, average of two replicates): 90%
- % Injury Corn (corn [7]; Herb. No. 1 0.14 kg/ha, no antidote): 10%
- % Injury Corn (corn [8]; Herbicide No.1 4.48 + No.7 0.56 kg/ha, no antidote): 95%
- % Injury Corn (corn [8]; Herbicide No.1 4.48 + No.7 2.24 kg/ha, no antidote): 95%
- % Injury Corn (corn [8]; Herbicide No.1 6.72 + No.7 0.56 kg/ha, no antidote): 93%
- % Injury Corn (corn [8]; Herbicide No.1 6.72 + No.7 (alachlor) 2.24 kg/ha, no antidote): 95%
- inhibition at 0.25 g/ha (corn [9]; herbicide alone 0.25 G/ha, read-out: % Inhibition Corn): 22.3%
- inhibition at 0.74 g/ha (corn [9]; herbicide alone 0.74 G/ha): 32.3%
- inhibition at 2.5 g/ha (corn [9]; herbicide alone 2.5 G/ha): 49.9%
